Assay in all cases: biochemical
The target in assay [1] is T1, panel of 374 wild-type kinases (Homo sapiens, UniProt Q9H3Y6).
T1 construct: purchased Reaction Biology Corporation
To be noted: read-out: % Enzyme Activity (relative to DMSO controls), kinase SRMS.

The target in assay [2] is T2, panel of 374 wild-type kinases (Homo sapiens, UniProt Q08345).
T2 construct: purchased Reaction Biology Corporation
To be noted: read-out: % Enzyme Activity (relative to DMSO controls), DDR1.

Assay [3] addresses T3, panel of 374 wild-type kinases (Homo sapiens, UniProt Q02779).
T3 construct: purchased Reaction Biology Corporation
To be noted: read-out: % Enzyme Activity (relative to DMSO controls), MLK2/MAP3K10.

Assay [4] concerns the target T4, panel of 374 wild-type kinases (Homo sapiens, UniProt P06493).
T4 construct: purchased Reaction Biology Corporation

Assay [5] addresses T5, panel of 374 wild-type kinases (Homo sapiens, UniProt P46734).
T5 construct: purchased Reaction Biology Corporation
T5 sequence (P46734 1-347): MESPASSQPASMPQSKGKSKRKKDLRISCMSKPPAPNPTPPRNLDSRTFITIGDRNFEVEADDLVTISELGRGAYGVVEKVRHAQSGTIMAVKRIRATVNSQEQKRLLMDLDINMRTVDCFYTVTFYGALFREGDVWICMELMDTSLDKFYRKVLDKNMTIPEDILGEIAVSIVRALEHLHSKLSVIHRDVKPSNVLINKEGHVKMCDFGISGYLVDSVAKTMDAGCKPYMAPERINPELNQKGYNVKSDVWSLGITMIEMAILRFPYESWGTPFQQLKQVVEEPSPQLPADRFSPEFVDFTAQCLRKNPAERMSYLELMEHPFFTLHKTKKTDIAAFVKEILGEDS
To be noted: read-out: % Enzyme Activity (relative to DMSO controls), MEK3.

The target of assay [6] is T6, panel of 374 wild-type kinases (Homo sapiens, UniProt Q9P1W9).
T6 construct: purchased Reaction Biology Corporation
T6 sequence (Q9P1W9 whole entry): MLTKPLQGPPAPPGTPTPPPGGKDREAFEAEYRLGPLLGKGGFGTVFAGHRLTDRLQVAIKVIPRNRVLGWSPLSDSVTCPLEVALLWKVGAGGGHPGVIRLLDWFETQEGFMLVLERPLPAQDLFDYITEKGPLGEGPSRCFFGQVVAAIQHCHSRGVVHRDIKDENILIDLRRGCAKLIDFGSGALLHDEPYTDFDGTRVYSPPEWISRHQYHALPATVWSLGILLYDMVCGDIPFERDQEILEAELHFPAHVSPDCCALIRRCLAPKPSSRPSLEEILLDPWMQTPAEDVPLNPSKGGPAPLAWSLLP
To be noted: read-out: % Enzyme Activity (relative to DMSO controls), kinase PIM2.

Assay [7] addresses T7, panel of 374 wild-type kinases (Homo sapiens, UniProt P08069).
T7 construct: purchased Reaction Biology Corporation
To be noted: read-out: % Enzyme Activity (relative to DMSO controls), IGF1R.

Assay [8] deals with T8, panel of 374 wild-type kinases (Homo sapiens, UniProt Q8WXR4).
T8 construct: purchased Reaction Biology Corporation
T8 sequence (Q8WXR4 1-1341): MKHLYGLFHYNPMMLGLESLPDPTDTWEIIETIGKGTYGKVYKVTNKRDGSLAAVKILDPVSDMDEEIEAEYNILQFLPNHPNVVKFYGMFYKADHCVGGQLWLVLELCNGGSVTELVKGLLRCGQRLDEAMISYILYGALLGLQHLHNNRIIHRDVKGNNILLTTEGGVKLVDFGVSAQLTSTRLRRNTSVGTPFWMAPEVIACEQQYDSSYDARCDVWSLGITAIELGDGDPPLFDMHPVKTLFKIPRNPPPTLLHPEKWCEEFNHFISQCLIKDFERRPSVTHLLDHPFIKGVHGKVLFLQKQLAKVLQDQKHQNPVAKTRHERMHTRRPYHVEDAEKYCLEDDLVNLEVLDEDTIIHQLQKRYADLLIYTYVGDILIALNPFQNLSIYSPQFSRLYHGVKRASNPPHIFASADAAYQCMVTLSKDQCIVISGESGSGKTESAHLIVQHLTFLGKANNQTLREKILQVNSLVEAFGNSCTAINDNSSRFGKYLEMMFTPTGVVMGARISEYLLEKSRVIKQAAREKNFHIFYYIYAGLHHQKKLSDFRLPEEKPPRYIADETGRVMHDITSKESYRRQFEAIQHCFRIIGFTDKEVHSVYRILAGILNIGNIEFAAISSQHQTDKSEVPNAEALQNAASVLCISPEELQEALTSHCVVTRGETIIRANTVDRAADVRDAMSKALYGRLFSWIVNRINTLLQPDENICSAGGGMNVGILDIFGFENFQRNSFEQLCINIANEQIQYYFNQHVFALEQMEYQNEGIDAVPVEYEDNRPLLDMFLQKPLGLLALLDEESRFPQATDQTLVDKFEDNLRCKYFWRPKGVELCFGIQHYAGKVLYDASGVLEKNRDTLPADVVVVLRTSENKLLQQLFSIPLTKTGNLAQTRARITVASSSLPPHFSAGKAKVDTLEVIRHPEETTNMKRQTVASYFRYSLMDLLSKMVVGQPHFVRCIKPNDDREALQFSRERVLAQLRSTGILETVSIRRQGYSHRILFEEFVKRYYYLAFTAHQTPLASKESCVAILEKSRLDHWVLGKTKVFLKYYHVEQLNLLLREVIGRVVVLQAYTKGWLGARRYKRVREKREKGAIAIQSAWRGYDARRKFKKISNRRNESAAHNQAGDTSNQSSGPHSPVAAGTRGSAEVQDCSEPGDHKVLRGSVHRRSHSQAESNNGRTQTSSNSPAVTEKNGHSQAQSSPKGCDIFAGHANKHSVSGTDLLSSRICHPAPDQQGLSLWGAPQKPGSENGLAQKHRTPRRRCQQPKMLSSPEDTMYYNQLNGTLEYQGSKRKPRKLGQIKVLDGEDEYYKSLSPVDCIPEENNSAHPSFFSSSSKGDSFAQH
To be noted: read-out: % Enzyme Activity (relative to DMSO controls), MYO3b.

Where [9] appears, read: read-out: % Enzyme Activity (relative to DMSO controls), CDK1/cyclin A.
Where [10] appears, read: read-out: % Enzyme Activity (relative to DMSO controls), CDK1/cyclin B.
Setting [11] is: read-out: % Enzyme Activity (relative to DMSO controls), CDK1/cyclin E.

This passage reports remaining activity results from patent US20240246942A1, “KINASE INHIBITORS FOR THE TREATMENT OF NEURODEGENERATIVE DISEASES” (priority 2020, published 2024).

Like-named read-outs stand apart in the source and are kept apart here.

T4 sequence (P06493 whole entry): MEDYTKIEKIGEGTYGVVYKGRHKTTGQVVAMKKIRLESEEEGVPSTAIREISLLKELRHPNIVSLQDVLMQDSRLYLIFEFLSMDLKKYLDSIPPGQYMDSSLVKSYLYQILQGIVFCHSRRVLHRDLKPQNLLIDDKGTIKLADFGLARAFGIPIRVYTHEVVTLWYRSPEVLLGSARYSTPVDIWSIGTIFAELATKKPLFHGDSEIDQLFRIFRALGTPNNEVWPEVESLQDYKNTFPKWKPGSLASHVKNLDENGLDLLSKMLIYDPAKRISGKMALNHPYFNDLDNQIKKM
T7 sequence (P08069 31-1367): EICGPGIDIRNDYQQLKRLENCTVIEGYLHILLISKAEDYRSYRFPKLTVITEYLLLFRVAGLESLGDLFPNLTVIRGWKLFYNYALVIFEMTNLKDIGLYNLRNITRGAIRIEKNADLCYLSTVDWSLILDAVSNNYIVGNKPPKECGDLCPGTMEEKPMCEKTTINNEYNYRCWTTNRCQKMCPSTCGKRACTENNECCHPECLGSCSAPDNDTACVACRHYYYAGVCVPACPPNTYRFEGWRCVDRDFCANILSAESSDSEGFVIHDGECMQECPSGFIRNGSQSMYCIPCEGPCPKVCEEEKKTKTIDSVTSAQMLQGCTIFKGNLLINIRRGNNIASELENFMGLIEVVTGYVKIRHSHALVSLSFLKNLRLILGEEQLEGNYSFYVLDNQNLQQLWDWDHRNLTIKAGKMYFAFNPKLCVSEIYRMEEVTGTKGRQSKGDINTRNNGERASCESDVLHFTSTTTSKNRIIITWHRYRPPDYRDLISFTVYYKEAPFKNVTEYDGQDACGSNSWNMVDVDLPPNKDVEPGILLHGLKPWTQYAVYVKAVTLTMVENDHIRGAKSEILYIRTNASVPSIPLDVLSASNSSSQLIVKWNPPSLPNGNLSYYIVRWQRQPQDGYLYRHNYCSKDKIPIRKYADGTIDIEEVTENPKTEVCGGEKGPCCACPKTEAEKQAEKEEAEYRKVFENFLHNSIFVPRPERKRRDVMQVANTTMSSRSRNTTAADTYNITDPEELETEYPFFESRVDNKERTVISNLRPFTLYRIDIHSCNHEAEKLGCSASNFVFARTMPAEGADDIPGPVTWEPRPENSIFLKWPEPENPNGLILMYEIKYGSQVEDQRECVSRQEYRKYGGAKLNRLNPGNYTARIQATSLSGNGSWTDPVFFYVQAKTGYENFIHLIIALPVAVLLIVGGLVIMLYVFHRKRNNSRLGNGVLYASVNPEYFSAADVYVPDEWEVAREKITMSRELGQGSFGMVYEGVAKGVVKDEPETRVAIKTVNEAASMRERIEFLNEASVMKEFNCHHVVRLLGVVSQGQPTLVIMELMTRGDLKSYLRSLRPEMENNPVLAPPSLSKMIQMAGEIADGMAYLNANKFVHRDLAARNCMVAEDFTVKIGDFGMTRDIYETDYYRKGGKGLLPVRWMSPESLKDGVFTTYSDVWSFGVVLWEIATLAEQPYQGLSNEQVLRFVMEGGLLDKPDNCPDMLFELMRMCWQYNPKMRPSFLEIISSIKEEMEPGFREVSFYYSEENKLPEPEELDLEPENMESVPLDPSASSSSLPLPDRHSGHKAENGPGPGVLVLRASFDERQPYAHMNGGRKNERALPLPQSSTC
T2 sequence (Q08345 19-913): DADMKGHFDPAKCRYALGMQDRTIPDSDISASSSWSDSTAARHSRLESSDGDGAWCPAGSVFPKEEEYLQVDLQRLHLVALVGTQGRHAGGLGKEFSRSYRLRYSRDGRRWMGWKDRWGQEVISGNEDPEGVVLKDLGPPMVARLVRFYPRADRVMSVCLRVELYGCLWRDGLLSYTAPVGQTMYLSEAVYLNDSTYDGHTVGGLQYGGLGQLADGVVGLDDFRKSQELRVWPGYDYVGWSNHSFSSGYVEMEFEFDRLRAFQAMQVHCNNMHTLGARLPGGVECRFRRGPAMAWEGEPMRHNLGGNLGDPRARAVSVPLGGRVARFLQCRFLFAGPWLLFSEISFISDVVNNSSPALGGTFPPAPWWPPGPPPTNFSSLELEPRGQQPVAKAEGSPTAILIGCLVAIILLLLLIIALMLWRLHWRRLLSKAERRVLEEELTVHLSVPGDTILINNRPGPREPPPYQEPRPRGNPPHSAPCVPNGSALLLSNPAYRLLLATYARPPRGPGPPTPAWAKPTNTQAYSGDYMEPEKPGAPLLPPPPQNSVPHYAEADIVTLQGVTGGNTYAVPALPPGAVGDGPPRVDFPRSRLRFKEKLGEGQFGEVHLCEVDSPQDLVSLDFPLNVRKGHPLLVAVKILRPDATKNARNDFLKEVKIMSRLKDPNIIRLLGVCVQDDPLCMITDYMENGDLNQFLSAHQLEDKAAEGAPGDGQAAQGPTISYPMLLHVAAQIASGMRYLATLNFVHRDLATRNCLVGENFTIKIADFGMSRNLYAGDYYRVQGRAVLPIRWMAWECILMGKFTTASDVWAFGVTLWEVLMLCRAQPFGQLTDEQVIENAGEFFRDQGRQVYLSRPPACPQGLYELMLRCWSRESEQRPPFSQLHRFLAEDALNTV
T3 sequence (Q02779 whole entry): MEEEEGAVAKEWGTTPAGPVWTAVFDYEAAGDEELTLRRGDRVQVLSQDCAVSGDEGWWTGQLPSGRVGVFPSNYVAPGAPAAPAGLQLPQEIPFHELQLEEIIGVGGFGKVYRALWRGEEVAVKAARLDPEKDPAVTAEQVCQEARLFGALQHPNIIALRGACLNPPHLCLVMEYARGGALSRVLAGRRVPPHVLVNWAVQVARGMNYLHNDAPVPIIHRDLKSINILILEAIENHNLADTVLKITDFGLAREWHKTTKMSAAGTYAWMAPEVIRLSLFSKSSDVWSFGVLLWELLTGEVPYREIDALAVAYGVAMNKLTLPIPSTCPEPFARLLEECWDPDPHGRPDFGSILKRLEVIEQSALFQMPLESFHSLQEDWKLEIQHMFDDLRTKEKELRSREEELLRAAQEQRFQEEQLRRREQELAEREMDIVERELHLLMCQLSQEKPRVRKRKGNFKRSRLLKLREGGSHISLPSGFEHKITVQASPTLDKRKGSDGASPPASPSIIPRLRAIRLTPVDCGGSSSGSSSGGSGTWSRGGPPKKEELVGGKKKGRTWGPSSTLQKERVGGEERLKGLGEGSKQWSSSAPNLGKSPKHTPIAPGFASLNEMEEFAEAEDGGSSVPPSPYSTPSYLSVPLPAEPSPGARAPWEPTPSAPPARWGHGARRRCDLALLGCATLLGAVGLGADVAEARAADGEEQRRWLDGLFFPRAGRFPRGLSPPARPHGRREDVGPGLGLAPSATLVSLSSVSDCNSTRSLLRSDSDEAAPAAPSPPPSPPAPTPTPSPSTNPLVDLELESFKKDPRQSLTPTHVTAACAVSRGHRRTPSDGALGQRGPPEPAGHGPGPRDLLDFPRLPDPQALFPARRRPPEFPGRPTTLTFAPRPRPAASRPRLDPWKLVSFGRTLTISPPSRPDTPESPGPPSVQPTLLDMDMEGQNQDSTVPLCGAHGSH
T1 sequence (Q9H3Y6 whole entry): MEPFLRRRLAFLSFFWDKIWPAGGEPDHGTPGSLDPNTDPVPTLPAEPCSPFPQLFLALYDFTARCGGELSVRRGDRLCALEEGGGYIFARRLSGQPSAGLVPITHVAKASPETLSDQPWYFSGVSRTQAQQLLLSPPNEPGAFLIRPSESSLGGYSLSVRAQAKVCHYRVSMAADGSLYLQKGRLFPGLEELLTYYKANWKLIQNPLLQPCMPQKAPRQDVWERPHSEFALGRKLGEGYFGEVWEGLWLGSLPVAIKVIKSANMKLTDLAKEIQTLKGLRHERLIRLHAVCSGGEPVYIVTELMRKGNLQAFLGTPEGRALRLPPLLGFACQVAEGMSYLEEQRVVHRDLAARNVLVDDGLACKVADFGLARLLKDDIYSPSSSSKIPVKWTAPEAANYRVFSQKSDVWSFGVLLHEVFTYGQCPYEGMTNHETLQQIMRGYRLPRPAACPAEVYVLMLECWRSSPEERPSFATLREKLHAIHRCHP

Regarding `O=C(Nc1cnn(-c2csc(C(=O)NC3COC3)c2)c1)Nc1ccccc1Cl` [Compound 17, 4-(4-(3-(2-chlorophenyl)ureido)-1H-pyrazol-1-yl)-N-(oxetan-3-yl)thiophene-2-carboxamide], the remaining activity at 5 µM was found to be 99.8% in assay [1]; 98.4% in assay [2]; 98.5% in assay [3]; 95.5% in assay [4] (setting [9]); 92.6% in assay [4] (setting [10]); 94.7% in assay [4] (setting [11]). The remaining activity at 5 µM in assay [5] turned out to be 104%; in assay [6], 96.4%; in assay [7], 95.8%; in assay [8], 128%.
Take `O=C(Nc1cnn(-c2csc(C(=O)NC3COC3)c2)c1)Nc1c(F)cccc1Cl` [Compound 25, 4-(4-(3-(2-chloro-6-fluorophenyl)ureido)-1H-pyrazol-1-yl)-N-(oxetan-3-yl)thiophene-2-carboxamide]: the remaining activity at 5 µM was 105% in assay [1]; 88.9% in assay [2]; 94.3% in assay [3]; 86.3% in assay [4] (setting [9]); 105% in assay [4] (setting [10]); 98.4% in assay [4] (setting [11]). Further, the remaining activity at 5 µM in assay [5] was 111%; in assay [6], 129%; in assay [7] it was 94.9%; in assay [8] it was 101%.
`Cc1sc(C(=O)NC2COC2)cc1-n1cc(NC(=O)Nc2c(F)cccc2Cl)cn1` [Compound 27, 4-(4-(3-(2-chloro-6-fluorophenyl)ureido)-1H-pyrazol-1-yl)-5-methyl-N-(oxetan-3-yl)thiophene-2-carboxamide]: the remaining activity at 10 µM is 104% in assay [1] (10 uM); 83.7% in assay [2] (10 uM); 90.8% in assay [3] (10 uM); 105% in assay [4] (setting [9]); 92.7% in assay [4] (setting [10]); 100% in assay [4] (setting [11]). Also, the remaining activity at 10 µM in assay [5] (10 uM) was found to be 88.8%; in assay [6] (10 uM) it was 96.5%; in assay [7] (10 uM) it was 102%; in assay [8] (10 uM) it was 78.7%.
